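These data come from cells grown in 96-well plates and exposed to compound for 48 hours at five concentrations. Here, GI50 denotes the concentration required for 50% inhibition of growth. TGI is the concentration that stops growth completely.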
Tests used:
Assay in all cases: inhibition of tumour cell growth, NCI panel, 48 h
786-0 renal = system: 786-0 renal
A498 renal = system: A498 renal
A549 NSCLC = system: A549 NSCLC
ACHN renal = system: ACHN renal
BT-549 breast = system: BT-549 breast
CAKI-1 renal = system: CAKI-1 renal
CCRF-CEM leukemia = system: CCRF-CEM leukemia
COLO 205 colon = system: COLO 205 colon
DU-145 prostate = system: DU-145 prostate
EKVX NSCLC = system: EKVX NSCLC
HCC-2998 colon = system: HCC-2998 colon
HCT-116 colon = system: HCT-116 colon
HCT-15 colon = system: HCT-15 colon
HOP-62 NSCLC = system: HOP-62 NSCLC
HOP-92 NSCLC = system: HOP-92 NSCLC
K-562 leukemia = system: K-562 leukemia
KM12 colon = system: KM12 colon
LOX IMVI melanoma = system: LOX IMVI melanoma
M14 melanoma = system: M14 melanoma
MCF7 breast = system: MCF7 breast
MDA-MB-231 breast = system: MDA-MB-231 breast
MDA-MB-435 = system: MDA-MB-435
NCI-H226 lung = system: NCI-H226 lung
NCI-H23 lung = system: NCI-H23 lung
NCI-H460 lung = system: NCI-H460 lung
NCI/ADR-RES ovarian = system: NCI/ADR-RES ovarian
OVCAR-3 ovarian = system: OVCAR-3 ovarian
OVCAR-4 ovarian = system: OVCAR-4 ovarian
OVCAR-5 ovarian = system: OVCAR-5 ovarian
PC-3 prostate = system: PC-3 prostate
RPMI-8226 leukemia = system: RPMI-8226 leukemia
RXF 393 renal = system: RXF 393 renal
SF-268 CNS = system: SF-268 CNS
SF-295 CNS = system: SF-295 CNS
SK-MEL-2 melanoma = system: SK-MEL-2 melanoma
SK-MEL-28 melanoma = system: SK-MEL-28 melanoma
SK-MEL-5 melanoma = system: SK-MEL-5 melanoma
SK-OV-3 ovarian = system: SK-OV-3 ovarian
SNB-19 CNS = system: SNB-19 CNS
SNB-75 CNS = system: SNB-75 CNS
SW-620 colon = system: SW-620 colon
T-47D breast = system: T-47D breast
TK-10 renal = system: TK-10 renal
U251 CNS = system: U251 CNS
UACC-257 melanoma = system: UACC-257 melanoma
UACC-62 melanoma = system: UACC-62 melanoma
UO-31 renal = system: UO-31 renal

Q: Which results are given for CN(C)C(=O)C(F)(F)C(c1ccc(Br)cc1)C1C(=O)N(C)C(=O)N(C)C1=O (configuration not stated)?
A: TGI (786-0 renal): > 100 µM; TGI (A498 renal): > 100 µM; TGI (A549 NSCLC): > 100 µM; TGI (ACHN renal): > 100 µM; TGI (BT-549 breast): > 100 µM; TGI (CAKI-1 renal): > 100 µM; TGI (CCRF-CEM leukemia): > 100 µM; TGI (COLO 205 colon): > 100 µM; TGI (DU-145 prostate): > 100 µM; TGI (EKVX NSCLC): > 100 µM; TGI (HCC-2998 colon): > 100 µM; TGI (HCT-116 colon): > 100 µM; TGI (HCT-15 colon): > 100 µM; TGI (HOP-62 NSCLC): > 100 µM; TGI (HOP-92 NSCLC): > 100 µM; TGI (K-562 leukemia): > 100 µM; TGI (KM12 colon): > 100 µM; TGI (LOX IMVI melanoma): > 100 µM; TGI (M14 melanoma): > 100 µM; TGI (MCF7 breast): > 100 µM; TGI (MDA-MB-231 breast): > 100 µM; TGI (MDA-MB-435): > 100 µM; TGI (NCI-H226 lung): > 100 µM; TGI (NCI-H23 lung): > 100 µM; TGI (NCI-H460 lung): > 100 µM; TGI (NCI/ADR-RES ovarian): > 100 µM; TGI (OVCAR-3 ovarian): > 100 µM; TGI (OVCAR-4 ovarian): > 100 µM; TGI (OVCAR-5 ovarian): > 100 µM; TGI (PC-3 prostate): > 100 µM; TGI (RPMI-8226 leukemia): > 100 µM; TGI (RXF 393 renal): > 100 µM; TGI (SF-268 CNS): > 100 µM; TGI (SF-295 CNS): > 100 µM; TGI (SK-MEL-2 melanoma): > 100 µM; TGI (SK-MEL-28 melanoma): > 100 µM; TGI (SK-MEL-5 melanoma): > 100 µM; TGI (SK-OV-3 ovarian): > 100 µM; TGI (SNB-19 CNS): > 100 µM; TGI (SNB-75 CNS): > 100 µM; TGI (SW-620 colon): > 100 µM; TGI (T-47D breast): > 100 µM; TGI (TK-10 renal): > 100 µM; TGI (U251 CNS): > 100 µM; TGI (UACC-257 melanoma): > 100 µM; TGI (UACC-62 melanoma): > 100 µM; TGI (UO-31 renal): > 100 µM

Q: Which GI50 (ACHN renal) does the source give for N=C(N)c1ccc(-c2ccc(-c3ccc(Cl)cc3)s2)nc1 here?
A: 1.65 µM

Q: And the TGI (ACHN renal)?
A: 3 µM

Q: What about the GI50 (DU-145 prostate) of the same molecule?
A: 1.7 µM

Q: And the TGI (DU-145 prostate)?
A: 3.07 µM

Q: What about the GI50 (MDA-MB-231 breast) of the same molecule?
A: 1.35 µM

Q: And the TGI (MDA-MB-231 breast)?
A: 2.74 µM

Q: What about the GI50 (MDA-MB-435) of the same molecule?
A: 1.65 µM

Q: And the TGI (MDA-MB-435)?
A: 3.02 µM

Q: And the GI50 (OVCAR-4 ovarian)?
A: 1.64 µM

Q: And the TGI (OVCAR-4 ovarian)?
A: 3.06 µM

Q: What about the GI50 (OVCAR-5 ovarian) of the same molecule?
A: 1.56 µM

Q: And the TGI (OVCAR-5 ovarian)?
A: 2.9 µM

Q: What about the GI50 (SK-MEL-2 melanoma) of the same molecule?
A: 2.21 µM

Q: And the TGI (SK-MEL-2 melanoma)?
A: 4.89 µM

Q: What about the GI50 (SK-MEL-28 melanoma) of the same molecule?
A: 1.62 µM

Q: And the TGI (SK-MEL-28 melanoma)?
A: 2.97 µM

Q: And the GI50 (SK-OV-3 ovarian)?
A: 3.56 µM

Q: And the TGI (SK-OV-3 ovarian)?
A: 18.1 µM

Q: What about the GI50 (T-47D breast) of the same molecule?
A: 1.82 µM

Q: And the TGI (T-47D breast)?
A: 4.49 µM

— PubChem BioAssay (NCI)
